Experimental data published in patent US4976950A, “Bone marrow suppressing agents” (The Dow Chemical Company, priority 1989, dated 1990).
Where “and” joins values, the source holds several entries; their conditions need not be identical. Equal values may be shown once.

What was measured:
white blood cell = assay: White blood cell count after injection of radionuclide complex (Unopette Test 5856); type: in vivo, Sprague Dawley rats
Experimental: Six Sprague Dawley rats were allowed to acclimate for a period of 6 days then a sample of blood was taken daily from the tail vein and the white blood cell count determined by a standard manual method (Unopette Test 5856 from Becton-Dickinson and Company). On the fourth day, rats numbered 2, 4 and 6 were injected with 0.9 mCi (33.3 MBq) of the above complex. The rat weight at this time ranged from 160-180 g. On days 7, 8, and 9 the white blood cell count was again determined for each rat. Table VI gives the white blood cell count of the injected (2, 4 and 6) rats compared to the control rats (1, 3, and 5). […]

[1] = Biodistribution: % of injected dose in tissue 2 hours after tail vein injection (NaI scintillation counting); type: in vivo, Sprague Dawley rats; conditions: rat i.v.
Experimental: (§1) The rats weighed between 150 and 200 g at the time of injection. After 2 hours the rats were killed by cervical dislocation and dissected. The amount of radioactivity in each tissue was determined by counting in a NaI scintillation counter coupled to a multichannel analyzer. The counts were compared to the counts in 100 μL standards in order to determine the percentage of the dose in each tissue or organ.
as §1, with “to determined” for “to determine”, “organ. The numbers represent the average of 5 rats per data point.” for “organ.”
as §1, with “Sprague Dawley rats were allowed to acclimate for five days then injected with 100 μL of the Sm solution described above via a tail vein. The rats” for “The rats”, “or organ. The numbers represent the average of 3 rats per data point.” for “or organ.”
as §1, with “Sprague Dawley rats were allowed to acclimate for five days then injected with 100 μL of the Ho solution described above via a tail vein. The rats” for “The rats”, “each tissue wa determined by” for “each tissue was determined by”, “or organ. The numbers represent the average of 3 rats per data point.” for “or organ.”
Sprague Dawley rats were allowed to acclimate for five days then injected with 100 μL of the solutions described above via a tail vein. The rats weighed between 150 and 200 g at the time of injection. After 2 hours the rats were killed by cervical dislocation. Tissues were taken, weighed and the amount of radioactivity determined by counting in a NaI scintillation counter coupled to a multichannel analyzer. The counts in each tissue were compared to the counts in 100 μL standards in order to determine the percentage of the dose in each tissue or organ.
A Sprague Dawley rat was allowed to acclimate for five days then injected with 175 μL of the solution described above via a tail vein. The rat weighed 155 g at the time of injection. After 2 hours the rat was killed by cervical dislocation and dissected. The amount of radioactivity in each tissue was determined by counting in a NaI scintillation counter coupled to a multichannel analyzer. The counts in each tissue were compared to the counts in […] standards in order to determine the percentage of the dose in each tissue or organ.

[2] = 0.9 mCi (33.3 MBq) injected Day 4, individual rats 2, 4, 6 (Day 4 counts 28950, 21300, 17600)

**Q.** Which results are given for `O=P([O-])(O)CN1CCN(CP(=O)(O)O)CCN(CP(=O)([O-])O)CCN(CP(=O)(O)O)CC1.[166Ho]` [Ho-DOTMP]?
**A.** Blood count of treated animals compared to untreated animals (white blood cell; 0.9 mCi (33.3 MBq) i.v., rats, days 7, 8 and 9, injected on day 4): significant drop in the blood count; White blood cell count, Day 7 (white blood cell; [2]): 5850 and 7400 and 5400; White blood cell count, Day 8 (white blood cell; [2]): 7950 and 7500 and 4750; White blood cell count, Day 9 (white blood cell; [2]): 7900 and 7550 and 5350; % Injection dose in blood ([1]; Table IV, Blood, 0.6 mM Ho, ligand to Ho ratio approximately 1.5, average of 3 rats): 0.07%; % Injection dose in kidney ([1]; Table IV, Kidney, 0.6 mM Ho, ligand to Ho ratio approximately 1.5, average of 3 rats): 0.4%; % Injection dose in liver ([1]; Table IV, Liver, 0.6 mM Ho, ligand to Ho ratio approximately 1.5, average of 3 rats): 0.07%; % Injected dose in blood ([1]; Table V, Blood, ligand of Example 2, cation exchange purified, average of 3 rats): 0.17%; % Injected dose in bone ([1]; Table V, Bone, ligand of Example 2, cation exchange purified, average of 3 rats): 64%; % Injected dose in liver ([1]; Table V, Liver, ligand of Example 2, cation exchange purified, average of 3 rats): 0.19%
